Assay results: patent publication US11702403B2, “EAAT2 activators and methods of using thereof” (OHIO STATE INNOVATION FOUNDATION, priority 2018, dated 2023)

Experiments:
EAAT2 [1] = assay: EAAT2 protein levels in forebrain gliosomes of wild-type FVB/NJ mice by Western blot; format: in vivo; details: oral 1, 2.5, 5, 10, 20, 40 mg/kg, 24 hours post-treatment
Experimental: (§1) Mice were treated with compound at 40 mg/kg (or as depicted) and forebrains were harvested for the gliosome preparation 24 hr (or as described) post-treatment. FIG. 2A: Western blots show dose-dependent increase of EAAT2 protein levels. FIG. 2B: Time-dependent fold increase in EAAT2 protein expression in response to compound treatment at 4 hours (1.54±0.13) and 24 hours (1.98±0.19) post-treatment. Quantification of EAAT2 expression time course (normalized to flotilin; n=4/group). Data represented as mean SEM and analyzed using one-way ANOVA with Tukey post-hoc test. *p<0.05, **p<0.01. FIG. 2C: Compound treatment enhances CA3-CA1 LTP in the hippocampus. Mice were treated with vehicle or compound for seven days and acute hippocampal sections were collected for LTP recordings. […] Data represented as mean SEM analyzed using one-way ANOVA with Bonferroni post-hoc tests. Statistical significance denoted as ***p<0.001.
At 24 hours post-treatment, mice were euthanized and forbrains were harvested. Gliosomes (astrocytic processes) were then isolated for measuring EAAT2 protein levels by Western blot analysis. […] This induction could be seen as early as 4 hours post-treatment (FIG. 2B). […] Acute hippocampal slices were then collected and assessed for changes in long-term potentiation (LTP).

EAAT2 [2] = assay: EAAT2 protein levels in brains of wild-type C57BL/6 mice by Western blot; format: in vivo; details: 10 mpk p.o.
Experimental: Mice then were euthanized and brains were harvested for examining EAAT2 protein levels by Western blot analysis.
Wild-type C57BL/6 mice (2-3 months old) were treated orally with compound 101 at 0.01, 0.033, 0.1, 0.33, 1, 3.33, 10, 20, 40, 60, and 100 mg/kg/day (voluntary ingestion of compound in honey) for seven or 28 days. Mice then were euthanized and brains were harvested for examining EAAT2 protein levels by Western blot analysis. […] To determine the functional consequences of the increased EAAT2 to the synaptic plasticity, wild-type mice were treated with vehicle or compound 101 at 0.033, 0.33, and 3.3 mg/kg for seven days. Mice were then euthanized and acute hippocampal slices were collected and assessed for changes in long-term potentiation (LTP).

GSK3β = assay: Phosphorylation state of kinases in forebrain TCL of rTg4510 mice; format: in vivo; details: within one hour of treatment, single dose
Experimental: (§2) FIGS. 7A and 7B illustrate the effect of compound treatment on phosphorylated tau in total lysates (TCL) and in the Sarkosyl insoluble (P3) fraction (n=4/group). Dashed-line represents expression in rTg4510 vehicle group.
(§3) To identify which kinase/phosphatase is involved, forebrain TCL samples were collected from rTg4510 mice one-hour after a single dose. The phosphorylation (activation) state of kinases that have been reported to target tau as a substrate were assessed. […] This form of phosphorylation inhibits GSK3β activity. Therefore, inactivation of the GSK3β kinase may mediate reduced tau phosphorylation in rTg4510 mice after compound treatment.

[3] = test system: mouse model of Gulf War Illness (GWI); assay: Mouse model of Gulf War Illness, mood and cognitive behavior tests; format: in vivo, C57BL/6J mice
Experimental: Three months old C57BL/6J mice were randomly divided into three groups: control (no GWI, with vehicle), GWI with vehicle, and GWI with compound. For GWI groups, mice were exposed to GWI chemicals and chronic unpredictable stress daily for 6 weeks. GWI chemicals include pyridostigmine (1.3 mg/kg), permethrin (0.13 mg/kg), and DEET (40 mg/kg). The stress regimen included exposure to two different stressors each day. The stressors used in this study include restraint, cage rotation, hot stress, cold stress, predator sound, periods of darkness during the light cycle, wet bedding, replace bedding with water, cage tilt at 45 degree angle, and stroboscopic lighting. […] At 3-months post-exposure, mice were subjected to several behavior tests to assess mood and cognitive functions. These tests included dark and light exploration, elevated plus maze, novelty suppressed feeding, tail suspension open field, novel object recognition, and Barnes maze tests.
After one month of treatment, mice were evaluated for mood and cognitive functions.

tau = assay: Tau expression and phosphorylation in total cell lysates and Sarkosyl insoluble fractions of rTg4510 forebrains; format: in vivo, mice
Text: as §2
We, therefore, investigated if the compound could reduce toxic forms of tau. […] Four antibodies, which recognized different phosphorylation sites or pathological forms of tau, were used: PHF1 recognized Ser 396 & Ser404; AT8 recognized Ser202 & Thr205; MC-1 recognized neurofibrillary tangles and Tau5 recognized all of tau (phosphorylated and non-phosphorylated isoforms). […] There was an especially significant reduction in the 64 kDa (hyperphosphorylated) variant for each antibody tested; it has been reported that the 64 kDa variant was strongly correlated with neurodegeneration.
as §3, with “To identify which kinase/phosphatase is involved, forebrain TCL samples were collected from rTg4510 mice one-hour after a single dose.” left out

human EAAT2 = assay: EAAT2 protein levels in PA-EAAT2 cells by Western blot; format: cell-based
Experimental: Compounds were evaluated in PA-EAAT2 cells, a primary astrocyte stably expressing human EAAT2 mRNAs (Kong et al., J Clin Invest. 2014:1255-67). Cells were treated with compound at 0.0375, 0.075, 0.15, 0.3, 0.6, 1.25, 2.5, 5, 10 μM for 24 hr and then harvested for measuring EAAT2 protein levels by Western blot analysis.

[4] = test system: CA3-CA1 LTP in the hippocampus; assay: Long-term potentiation (LTP) in acute hippocampal slices of treated wild-type mice; format: in vivo; details: 10 mg/kg for 7 days, vs vehicle, up to 30 min after LTP induction
Experimental: as §1, with “Statistical significance denoted as ***p<0.001.” left out
At 24 hours post-treatment, mice were euthanized and forbrains were harvested. […] Acute hippocampal slices were then collected and assessed for changes in long-term potentiation (LTP).
Wild-type C57BL/6 mice (2-3 months old) were treated orally with compound 101 at 0.01, 0.033, 0.1, 0.33, 1, 3.33, 10, 20, 40, 60, and 100 mg/kg/day (voluntary ingestion of compound in honey) for seven or 28 days. […] Mice were then euthanized and acute hippocampal slices were collected and assessed for changes in long-term potentiation (LTP).

EAAT2 [5] = assay: EAAT2 protein levels in brains of Beagle dogs by Western blot; format: in vivo; details: oral 20 mg/kg; 0.5, 4, 24 hours post-treatment and seven daily treatment
[6] = prevention: 20 mg/kg daily from beginning of 6-weeks exposure, tested 3-months post-exposure
[7] = treatment: 20 mg/kg at five months post-exposure, one month of treatment

CN(C)CCn1nc(-c2ccccn2)ccc1=O [Compound 100, 2-(2-(dimethylamino)ethyl)-6-(pyridin-2-yl)pyridazin-3(2H)-one]
EAAT2 protein levels in gliosomes (EAAT2 [1]): induced EAAT2 expression in a dose-dependent manner | EAAT2 induction in vivo in wild-type mice - 7-day dosing by p.o. (EAAT2 [2]; 7-day dosing): 1.63-fold @ 10 mpk | EAAT2 induction in vivo in wild-type mice - 28-day dosing by p.o. (EAAT2 [2]; 28-day dosing): 2.37-fold @ 10 mpk | EAAT2 induction in vivo in wild-type mice - single dose by p.o. (EAAT2 [2]; single dose): 1.56-fold @ 10 mpk | phosphorylation of GSK3β at Ser9 (GSK3β): approximately 2 fold | anxiety- and depression-like behaviors [3, 6]: significantly reduced | cognitive functions [3, 6]: improved cognitive functions | anxiety- and depression-like behaviors [3, 7]: reduced anxiety- and depression-like behaviors | cognitive functions [3, 7]: significantly improved | total-tau (transgene expression) (tau; four months old, after two months of treatment): no reduction in total-tau | total tau in the P3 fraction (tau; long-term treatment, Sarkosyl insoluble (P3) fraction): very significant reduction | phosphorylated (AT8 and PHF1) and conformation specific (MC1) forms of tau (tau; long-term treatment, TCL and P3 fraction): reduced | all forms of tau in the P3 fraction (tau; single dose, 24 hours later): very clear reduction | pTau (AT8 and PHF1) in TCL (tau; single dose, 24 hours later): significant decrease | total tau (Tau-5) or tau tangles (MC1) in TCL (tau; single dose, 24 hours later): no change | concentration that reaches maximum activity (human EAAT2; PA-EAAT2 cells, 24 hr, tested 0.0375-10 μM): 0.6 µM | EC50 (human EAAT2; primary astrocytes, read-out: EAAT2 induction in vitro - primary astrocytes (EC50)): 250 nM | CA1 field potential responses to stimulation of CA3 afferents (LTP) [4]: significantly increased responses | EAAT2 protein levels in dog brains (EAAT2 [5]): increased in a time-dependent manner
